Assay results reported in patent US4859664A, “Derivatives of 2,3,4,5,6,7-hexahydro-2,7-methano-1,5-benzoxazonines and -1,4-benzoxazonines, processes for their production and their use as pharmaceuticals” (priority 1986, dated 1989).

Key:
Assay type in all cases: in vivo, male NMRI mice
hot plate test = details: Mus musculus, sc; plate 54° C.; 30 and 60 min; limits in brackets; read-out: ED50 (50% increase of the reaction time)
Procedure: (§1) For the pharmacological investigations described in the following, there were used male NMRI mice with a weight of from 15 to 30 g. The animals were kept under usual laboratory conditions, randomised and subjected to a light-dark change with a 12 hour rhythm. They were given a standard feed and water ad libitum up to the commencement of the experiments.
(§2) The test compounds were administered in a volume of 10 ml./kg./body weight per mouse. As carrier, there was used physiological sodium chloride solution or a suspension of 0.5% tragacanth in physiological sodium chloride solution.
The experimental results are given as average values with a mean error of the average value (x±S.E.M.). The ED50 values were calculated according to Litchfield and Wilcoxon (J. Pharmacol. Exp. Ther., 96, 99/1949). The compounds were thereby tested in 4 dosages ([…]). […]
30 and 60 minutes after the subcutaneous administration of the test compounds, the experimental animals were placed on a metal plate, the surface temperature of which was kept constant at 54° C. The time was measured up to the commencement of a pain reaction (standing on the rear paws with licking and rubbing togeth4er of the front paws or jumping). In a preceding test, the average reaction time of the animals was determined from three measurements at intervals of, in each case, 15 minutes. […]

[1] = tonus reduction on striated musculature
Procedure: as §1, §2
6. Tonus reduction on striated musculature.
The test used is described by J. P. Chambon et al. (Arzneimittelforschung (Drug Research), 35 (II), (10), 1572/1985).
5 animals per dosage group were placed with their front paws on a horizontal metal rod (diameter 3 mm., length 20 cm.) which was fixed 30 cm. above a laboratory bench. Mice with normal muscle tonus climbed within 5 seconds on to the rod with at least one rear paw.
40, 80 and 120 minutes after the subcutaneous administration of the test compound, the animals were again tested for this ability and the number of incapable animals was recorded.

[2] = influencing of hexobarbital narcosis; details: for period of narcosis ± SEM: hexobarbital sodium 100 mg./kg. i.p.
Procedure: […]. They were given a standard feed and water ad libitum up to the commencement of the experiments.
as §2
The experimental results are given as average values with a mean error of the average value (x±S.E.M.). The ED50 values were calculated according to Litchfield and Wilcoxon (J. Pharmacol. Exp. Ther., 96, 99/1949). The compounds were thereby tested in 4 dosages (p≤0.5).
4. Influencing of hexobarbital narcosis.
The test compounds were administered subcutaneously to 5 animals per dosage group. After 30 minutes, 100 mg./kg. hexobarbital sodium was administered intraperitoneally. 2 to 3 minutes after this injection, the animals allowed themselves to be laid on their backs. For each animal, there was measured the time in minutes from the commencement of the back position up to the time when the animals themselves twice successively again assumed the abdominal position.

Question: Which ED50 (hot plate test) does the source give for `CC12CCNCC(C1)c1ccccc1O2` (centres unmarked) [Example 6, 2,3,4,5,6,7-hexahydro-2-methyl-2,7-methano-1,5-benzoxazonine] here?
Answer: 13.8 mg/kg

Question: What about the muscle-relaxing action ([1]; 25 mg./kg. s.c.) of the same compound?
Answer: 13%

Question: What about the muscle-relaxing action ([1]; 50 mg./kg. s.c.) of the same compound?
Answer: 20%

Question: What does the source list for `CC1NCCC2(C)CC1c1ccccc1O2` (centres unmarked) [Example 9, 2,3,4,5,6,7-hexahydro-2,6-dimethyl-2,7-methano-1,5-benzoxazonine]?
Answer: ED50 (hot plate test): 12 mg/kg; muscle-relaxing action ([1]; 25 mg./kg. s.c.): 13%; muscle-relaxing action ([1]; 50 mg./kg. s.c.): 20%; change with regard to hexabarbital sodium ([2]; 25 mg/kg sc): -29.4 min; period of narcosis ± SEM ([2]; 25 mg/kg sc): 63 ± 21.0 min; effect on period of narcosis ([2]; 50 mg./kg.): statistically verified shortening of the period of narcosis; change with regard to hexabarbital sodium ([2]; 50 mg/kg sc): -53.4 min; period of narcosis ± SEM ([2]; 50 mg/kg sc): 39 ± 12.4 min
